The record followed here is US20110071158A1, “NEW COMPOUNDS” (BOEHRINGER INGELHEIM INTERNATIONAL GMBH, priority 2009, published 2011).

T1 sequence (Q05397 whole entry): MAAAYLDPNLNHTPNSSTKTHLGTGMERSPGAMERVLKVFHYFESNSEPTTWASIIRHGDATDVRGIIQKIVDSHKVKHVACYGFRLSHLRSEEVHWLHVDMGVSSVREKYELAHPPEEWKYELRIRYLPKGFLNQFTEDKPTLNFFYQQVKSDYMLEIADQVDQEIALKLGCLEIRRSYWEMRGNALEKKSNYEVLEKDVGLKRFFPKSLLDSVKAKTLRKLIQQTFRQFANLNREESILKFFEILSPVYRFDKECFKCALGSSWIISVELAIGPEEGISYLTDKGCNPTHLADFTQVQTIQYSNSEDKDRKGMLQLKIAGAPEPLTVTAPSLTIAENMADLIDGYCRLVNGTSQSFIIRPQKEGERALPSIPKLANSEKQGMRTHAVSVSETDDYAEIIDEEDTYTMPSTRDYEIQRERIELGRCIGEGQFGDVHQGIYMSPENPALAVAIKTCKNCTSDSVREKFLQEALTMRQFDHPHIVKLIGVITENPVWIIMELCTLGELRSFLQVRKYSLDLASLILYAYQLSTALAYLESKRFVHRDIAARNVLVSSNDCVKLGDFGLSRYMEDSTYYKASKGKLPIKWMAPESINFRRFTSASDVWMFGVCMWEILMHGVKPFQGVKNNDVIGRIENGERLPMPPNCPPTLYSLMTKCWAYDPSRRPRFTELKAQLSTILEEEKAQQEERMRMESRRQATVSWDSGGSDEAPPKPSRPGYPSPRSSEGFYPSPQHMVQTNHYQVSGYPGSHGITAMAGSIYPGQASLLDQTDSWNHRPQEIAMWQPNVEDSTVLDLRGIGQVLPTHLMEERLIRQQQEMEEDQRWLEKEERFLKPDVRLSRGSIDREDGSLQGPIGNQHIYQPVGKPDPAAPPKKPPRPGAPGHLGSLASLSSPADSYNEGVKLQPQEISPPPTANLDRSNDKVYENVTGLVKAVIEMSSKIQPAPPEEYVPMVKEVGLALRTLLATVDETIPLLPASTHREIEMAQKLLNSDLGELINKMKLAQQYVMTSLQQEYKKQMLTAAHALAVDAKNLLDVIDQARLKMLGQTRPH

This assay has as its target T1, PTK2 enzyme (Homo sapiens, UniProt Q05397).
T1 construct: purchased Invitrogen PV3832
Nature of the assay: PTK2 enzyme test, Assay 1 (DELFIA, poly-Glu-Tyr substrate, antibody PT60). The format is biochemical. The settings on record: Assay 1 (values without *); 1 h pre-incubation, 2% DMSO. As for the experimental part: This test uses active PTK2 enzyme (Invitrogen Code PV3832) and poly-Glu-Tyr (4:1, Sigma P-0275) as the kinase substrate. The kinase activity is detected through the phosphorylation of the substrate in a DELFIA™ assay. The phosphorylated substrate is detected with the europium-labelled phosphotyrosine antibody PT60 (Perkin Elmer, No.: AD00400).
In order to determine concentration-activity curves with PTK2-inhibitors the compounds are serially diluted in 10% DMSO/H2O and 10 μL of each dilution are placed in each well of a 96-well microtitre plate (clear plate with a U-shaped base, Greiner No. 650101) (the inhibitors are tested in duplicates) and mixed with 10 μL/well of PTK2 kinase (0.01 μg/well). PTK2 kinase has been correspondingly diluted beforehand with kinase dilution buffer (20 mM TRIS/HCl pH 7.5, 0.1 mM EDTA, 0.1 mM EGTA, 0.286 mM sodium orthovanadate, 10% glycerol with the addition of freshly prepared BSA (fraction V, 1 mg/mL) and DTT (1 mM)). The test compound and the PTK2 kinase are pre-incubated for 1 h at RT and shaken at 500 revolutions per min. The reaction is started by the addition of 10 μL/well poly (Glu,Tyr) substrate (25 μg/well poly (Glu, Tyr), 0.05 μg/well biotinylated poly (Glu,Tyr) dissolved in 250 mM TRIS/HCl pH 7.5, 9 mM DTT)—the final concentration of DMSO is 2%. Then 20 μL of ATP Mix (30 mM TRIS/HCl pH 7.5, 0.02% Brij, 0.2 mM sodium orthovanadate, 10 mM magnesium acetate, 0.1 mM EGTA, 1× phosphatase inhibitor cocktail 1 (Sigma, No.: P2850), 50 μM ATP (Sigma, No.: A3377; 15 mM stock solution)) are added. After 1 h of kinase reaction (the plates are shaken at 500 rpm), the reaction is stopped by the addition of 12 μL/well 100 mM EDTA, pH 8.0 and shaken for a further 5 min at RT (500 rpm). 55 μL of the reaction mixture are transferred into a streptavidin plate (Strepta Well High Bind (transparent, 96-well) made by Roche, No.: 11989685001) and incubated for 1 h at RT (shaking at 500 rpm). Then the microtitre plate is washed three times with 200 μL/well D-PBS (Invitrogen, No. 14190). 100 μL of a solution containing DELFIA Eu-N1 Anti-Phosphotyrosine PT60 antibody (Perkin Elmer, No.: AD0040, diluted 1:2000 in DELFIA test buffer (Perkin Elmer, No.: 1244-111)) is then added and the mixture is incubated for 1 h at RT (shaking at 500 rpm). Then the plate is washed three times with 200 μL/well DELFIA washing buffer (Perkin Elmer, No.: 1244-114), 200 μL/well strengthening solution (Perkin Elmer, No.: 1244-105) are added and the mixture is incubated for 10 min at RT (shaking at 300 rpm).
The time-delayed europium fluorescence is then measured in a microtitre plate reader (VICTOR^3, Perkin Elmer). […] Wells that contain test buffer instead of enzyme are used as a control of the background kinase activity.
The IC50 values are determined from analyses of the concentration activity by iterative calculation with the aid of a sigmoid curve analysis algorithm (FIFTY, based on Graph PAD Prism Version 3.03) with a variable Hill coefficient.
Regarding `COc1cc(C(=O)NC2CCN(C)CC2)ccc1Nc1ncc(C(F)(F)F)c(N[C@@H]2CCCC[C@H]2NC(=O)C(C)(C)C)n1` [Example I-16], the IC50 worked out at 4 nM.
With `CCN1CCC(NC(=O)c2cc(OC)c(Nc3ncc(C(F)(F)F)c(N[C@@H]4CCCC[C@H]4N(C)C(C)=O)n3)cc2F)CC1` [Example I-161] the figure was 1 nM; with `COc1cc(C(=O)NC2CCN(C)CC2)ccc1Nc1ncc(C(F)(F)F)c(N[C@@H]2CCCC[C@@H]2NC(C)=O)n1` [Example I-5], 19 nM; with `COc1cc(C(=O)NC2CCN(C)CC2)ccc1Nc1ncc(Cl)c(N[C@@H]2CCCC[C@H]2NC(C)=O)n1` [Example I-64], 1 nM.
With `COc1cc([C@@H](O)CO)ccc1Nc1ncc(C(F)(F)F)c(N[C@@H]2CCCC[C@H]2N(C)S(C)(=O)=O)n1` [Example I-157] the figure was 0.69 nM; with `COc1cc(C(=O)NC2CCN(C)CC2)ccc1Nc1ncc(C(F)(F)F)c(N[C@@H]2CCC[C@@H]2NC(C)=O)n1` [Example I-105], 38 nM.
Molecule `CCNC(=O)N[C@@H]1CCCC[C@H]1Nc1nc(Nc2ccc(C(=O)NC3CCN(C)CC3)cc2OC)ncc1C(F)(F)F` [Example I-15] gave an IC50 of 3 nM.
With `COc1cc(C(=O)NC2CCN(C)CC2)c(F)cc1Nc1ncc(C(F)(F)F)c(N[C@@H]2CCCC[C@H]2NC(C)=O)n1` [Example I-154] the figure was 1 nM.
In turn, `COc1cc(C(=O)NC2CCOCC2)ccc1Nc1ncc(C(F)(F)F)c(N[C@H]2CCCC[C@@H]2NC(C)=O)n1` [Example I-36] showed an IC50 of 400 nM.
With `COc1cc(C(=O)NC2CCN(C)CC2)ccc1Nc1ncc(C(F)(F)F)c(N[C@@H]2CCCC[C@H]2N(C)C(=O)C2CCC2)n1` [Example I-84] the figure was 37 nM; with `CCNC(=O)c1ccc(Nc2ncc(Br)c(N[C@@H]3CCCC[C@H]3NC(C)=O)n2)c(OC)c1` [Example I-48], 2 nM.
As for `CCN1CCC(NC(=O)c2ccc(Nc3ncc(C(F)(F)F)c(N[C@@H]4CCCC[C@H]4N(C)C(C)=O)n3)c(OC)c2)CC1` [Example I-71], the IC50 came to 10 nM.
As for `COc1cc(N2CCN(C)CC2)ccc1Nc1ncc(C(F)(F)F)c(N[C@@H]2CCCC[C@H]2NC(=O)C(C)C)n1` [Example I-30], inhibition was half-maximal at 5 nM (IC50).
`CCN1CCC(NC(=O)c2cc(OC)c(Nc3ncc(Cl)c(N[C@@H]4CCCC[C@H]4N(C)S(C)(=O)=O)n3)cc2F)CC1` [Example I-169]: 4 nM corresponded to half-maximal inhibition (IC50).
The figure for `COC(=O)N(C)[C@@H]1CCCC[C@H]1Nc1nc(Nc2ccc(C(=O)NC3CCN(C)CC3)cc2OC)ncc1C(F)(F)F` [Example I-95] is 7 nM.
With `COc1cc(C(=O)NC2CCN(C)CC2)c(F)cc1Nc1ncc(Cl)c(N[C@@H]2CCCC[C@H]2N(C)S(C)(=O)=O)n1` [Example I-174] the figure was 4 nM; with `CNC(=O)c1ccc(Nc2ncc(C(F)(F)F)c(N[C@@H]3CCCC[C@H]3NC(C)=O)n2)c(OC)c1` [Example I-39], 2 nM.
The figure for `COc1cc(C(=O)NC2CCOCC2)c(F)cc1Nc1ncc(C(F)(F)F)c(N[C@@H]2CCCC[C@H]2NC(C)=O)n1` [Example I-86] is 7 nM.
`CCC(=O)N[C@@H]1CCCC[C@H]1Nc1nc(Nc2ccc(C(=O)NC3CCN(C)CC3)cc2OC)ncc1C(F)(F)F` [Example I-1, 3-methoxy-N-(1-methyl-piperidin-4-yl)-4-[4-((1R,2R)-2-propionylamino-cyclohexylamino)-5-trifluoromethyl-pyrimidin-2-ylamino]-benzamide] registered an IC50 of 1 nM.
`COc1cc(C(=O)NC2CCOCC2)ccc1Nc1ncc(Br)c(N[C@@H]2CCCC[C@H]2NC(C)=O)n1` [Example I-44] registered an IC50 of 2 nM.
Turning to `COc1cc(C(=O)NC2CCN(C)CC2)ccc1Nc1ncc(C(F)(F)F)c(N[C@@H]2CCCC[C@H]2NCC(=O)N(C)OC)n1` [Example I-26], 23 nM corresponded to half-maximal inhibition (IC50).
In the case of `COc1cc(C(=O)NC2CCN(C)CC2)ccc1Nc1ncc(C(F)(F)F)c(N[C@@H]2CCCC[C@H]2NC(=O)C2CCC2)n1` [Example I-23], the midpoint of inhibition, the IC50, lay at 3 nM.
Molecule `COc1cc(C(=O)NCCN(C)C)ccc1Nc1ncc(C(F)(F)F)c(N[C@@H]2CCCC[C@H]2N(C)C(C)=O)n1` [Example I-73] returned an IC50 of 0.95 nM.
The figure for `COc1cc(C(=O)N(C)C)ccc1Nc1ncc(C(F)(F)F)c(N[C@@H]2CCCC[C@H]2N(C)C(C)=O)n1` [Example I-72] is 31 nM; for `COc1ccccc1Nc1ncc(Br)c(N[C@@H]2CCCC[C@H]2NC(C)=O)n1` [Example I-53] it is 8 nM; for `COCCNC(=O)c1ccc(Nc2ncc(Br)c(N[C@@H]3CCCC[C@H]3NC(C)=O)n2)c(OC)c1` [Example I-52] it is 2 nM.
As for `COc1cc(N2CCN(C(C)(C)C)CC2)ccc1Nc1ncc(Br)c(N[C@@H]2CCCC[C@H]2N(C)S(C)(=O)=O)n1` [Example I-182], the IC50 worked out at 4 nM.
With `CON[C@H]1CCCC[C@H]1Nc1nc(Nc2ccc(C(=O)NC3CCN(C)CC3)cc2OC)ncc1C(F)(F)F` [Example I-113], the IC50 came to 5 nM.
For `COCCN1CCC(NC(=O)c2cc(OC)c(Nc3ncc(Cl)c(N[C@@H]4CCCC[C@H]4N(C)S(C)(=O)=O)n3)cc2Cl)CC1` [Example I-167], half-maximal inhibition (IC50) was put at 3 nM.
Consider `COc1cc(C(=O)NC2CCN(C)CC2)ccc1Nc1ncc(C(F)(F)F)c(N[C@@H]2CCCC[C@H]2NC(=O)C2CCCC2)n1` [Example I-22], for which the IC50 came to 15 nM.
With `COc1cc(C(=O)NC2CCN(C(C)C)CC2)ccc1Nc1ncc(C(F)(F)F)c(N[C@@H]2CCCC[C@H]2N(C)C(C)=O)n1` [Example I-109] the figure was 1 nM; with `COc1cc(C(=O)NC2CCN(C)CC2)ccc1Nc1ncc(C(F)(F)F)c(N[C@@H]2CCCC[C@H]2NC(=O)CN2CCOCC2)n1` [Example I-68], 200 nM; with `COc1cc(C(=O)N(C)C)ccc1Nc1ncc(C(F)(F)F)c(N[C@@H]2CCCC[C@H]2NC(C)=O)n1` [Example I-13], 18 nM.
The figure for `COc1cc(C(=O)NCCN(C)C)c(Cl)cc1Nc1ncc(Br)c(N[C@@H]2CCCC[C@H]2N(C)S(C)(=O)=O)n1` [Example I-172] is 2 nM; for `COc1cc(N2CCN(C(C)(C)C)CC2)ccc1Nc1ncc(Cl)c(N[C@@H]2CCCC[C@H]2N(C)S(C)(=O)=O)n1` [Example I-183] it is 4 nM; for `COc1cc(C(=O)NCCN(C)C)ccc1Nc1ncc(Cl)c(N[C@@H]2CCCC[C@H]2NC(C)=O)n1` [Example I-59] it is 1 nM.
As to `COc1cc(N2CCN(CC(=O)N(C)C)CC2)ccc1Nc1ncc(C(F)(F)F)c(N[C@@H]2CCCC[C@H]2N(C)S(C)(=O)=O)n1` [Example I-150], the IC50 is 2 nM.
`COc1cc(C(=O)NC2CCCN(C)C2)ccc1Nc1ncc(C(F)(F)F)c(N[C@@H]2CCCC[C@H]2N(C)C(C)=O)n1` (stereo partly shown) [Example I-74] registered an IC50 of 1 nM.
`CCN1CCC(NC(=O)c2ccc(Nc3ncc(Cl)c(N[C@@H]4CCCC[C@H]4NC(C)=O)n3)c(OC)c2)CC1` [Example I-61]: the IC50 came to 1 nM.
In the case of `COc1cc(C(=O)NC2CCCN(C)C2)ccc1Nc1ncc(Cl)c(N[C@@H]2CCCC[C@H]2N(C)S(C)(=O)=O)n1` (stereo partly shown) [Example I-163], 2 nM corresponded to half-maximal inhibition (IC50).
With `COc1cc(C(=O)NC2CCN(C)CC2)ccc1Nc1ncc(C(F)(F)F)c(N[C@@H]2CCCC[C@H]2N(C)C(=O)C2CC2)n1` [Example I-83] the figure was 4 nM; with `COc1cc(C(=O)NCCN(C)C)c(Cl)cc1Nc1ncc(Cl)c(N[C@@H]2CCCC[C@H]2N(C)S(C)(=O)=O)n1` [Example I-171], 2 nM.
The figure for `COc1cc(C(=O)NC(C)C)ccc1Nc1ncc(C(F)(F)F)c(N[C@@H]2CCCC[C@H]2NC(C)=O)n1` [Example I-2, 4-[4-(2-acetylamino-cyclohexylamino)-5-trifluoromethyl-pyrimidin-2-ylamino]-N-isopropyl-3-methoxy-benzamide] is 3 nM.
